Assays:
Conditions in all cases: 72 h
[1] = test system: U2OS; experiment: cell viability relative to DMSO; higher = less toxic
[2] = test system: Calu-3; experiment: as above
[3] = test system: Caco-2; experiment: as above
[4] = test system: Vero E6; experiment: as above
[5] = test system: HepG2; experiment: as above
[6] = test system: U2OS; experiment: drug sensitivity score (DSS) for viability; higher = more toxic; extreme values may be limits of the assay
[7] = test system: Calu-3; experiment: as above
[8] = test system: Caco-2; experiment: as above
[9] = test system: Vero E6; experiment: as above
[10] = test system: HepG2; experiment: as above
[11] = test system: U2OS; experiment: relative viability EC50 (midpoint between 100% and the lowest measured viability); higher = less toxic
[12] = test system: Calu-3; experiment: as above
[13] = test system: Caco-2; experiment: as above
[14] = test system: Vero E6; experiment: as above
[15] = test system: HepG2; experiment: as above

SMILES | cell viability ([1]; 1 nM) [%] | cell viability ([1]; 10 nM) [%] | cell viability ([1]; 100 nM) [%] | cell viability ([1]; 1000 nM) [%] | cell viability ([1]; 10000 nM) [%] | cell viability ([2]; 1 nM) [%] | cell viability ([2]; 10 nM) [%] | cell viability ([2]; 100 nM) [%] | cell viability ([2]; 1000 nM) [%] | cell viability ([2]; 10000 nM) [%] | cell viability ([3]; 1 nM) [%] | cell viability ([3]; 10 nM) [%] | cell viability ([3]; 100 nM) [%] | cell viability ([3]; 1000 nM) [%] | cell viability ([3]; 10000 nM) [%] | cell viability ([4]; 1 nM) [%] | cell viability ([4]; 10 nM) [%] | cell viability ([4]; 100 nM) [%] | cell viability ([4]; 1000 nM) [%] | cell viability ([4]; 10000 nM) [%] | cell viability ([5]; 1 nM) [%] | cell viability ([5]; 10 nM) [%] | cell viability ([5]; 100 nM) [%] | cell viability ([5]; 1000 nM) [%] | cell viability ([5]; 10000 nM) [%] | drug sensitivity score [6] | drug sensitivity score [7] | drug sensitivity score [8] | drug sensitivity score [9] | drug sensitivity score [10] | relative viability EC50 [11] [µM] | relative viability EC50 [12] [µM] | relative viability EC50 [13] [µM] | relative viability EC50 [14] [µM] | relative viability EC50 [15] [µM]
O=C(O)CCc1ccc(NCc2cccc3c2CCCN3CCOc2ccccc2)cc1F | 101 | 96.5 | 99 | 97.4 | 104 | 93.2 | 97.4 | 91.6 | 94.8 | 99.6 | 106 | 96.2 | 101 | 106 | 96.4 | 97.5 | 98.2 | 97.4 | 98.6 | 96 | 97.9 | 101 | 100 | 100 | 95 | 0 | 0 | 0 | 0 | 0 | > 10 | > 10 | > 10 | > 10 | > 10
OC(CCN1CCCCC1)(c1ccccc1)C1CCCCC1 (centres undefined) [trihexyphenidyl] | 96.9 | 103 | 101 | 98.1 | 97.8 | 102 | 98.9 | 96.7 | 90.7 | 85.6 | 101 | 100 | 95.5 | 94.6 | 74.7 | 103 | 106 | 112 | 98.9 | 83.1 | 101 | 87.7 | 100 | 93.2 | 83.4 | 0 | 0.5 | 1.7 | 0.5 | 0.3 | > 10 | > 10 | – | > 10 | > 10
CCCC(C)C1(CC)C(=O)NC(=S)NC1=O (centres undefined) [thiopental] | 100 | 98.2 | 99.9 | 101 | 97.5 | 99.6 | 98.6 | 93.3 | 102 | 98.8 | 100 | 100 | 104 | 96.4 | 91 | 96.2 | 95.2 | 94 | 95.7 | 95.1 | 102 | 100 | 101 | 90.5 | 89.5 | 0 | 0 | 0 | 0 | 0.1 | > 10 | > 10 | > 10 | > 10 | > 10
NCC(=O)CCC(=O)O [5-aminolevulinic-acid] | 104 | 96.9 | 99 | 94.6 | 95.3 | 96.9 | 104 | 105 | 104 | 104 | 100 | 103 | 98.9 | 86.2 | 94 | 93.7 | 94 | 91.7 | 91.3 | 97.8 | 91.4 | 99 | 92.1 | 104 | 104 | 0 | 0 | 1.1 | 0 | 0 | > 10 | > 10 | > 10 | > 10 | > 10
Cn1cc(C2=C(c3cn(C4CCN(Cc5ccccn5)CC4)c4ccccc34)C(=O)NC2=O)c2ccccc21 [enzastaurin] | 102 | 101 | 102 | 97.4 | 101 | 109 | 97.3 | 118 | 108 | 109 | 98.6 | 104 | 93.2 | 98.4 | 100 | 101 | 107 | 103 | 105 | 98.9 | 105 | 113 | 94 | 98 | 106 | 0 | 0 | 0 | 0 | 0 | > 10 | > 10 | > 10 | > 10 | > 10
CC(C)C[C@H](NC(=O)N1CCCCCC1)C(=O)N[C@H](Cc1cn(C)c2ccccc12)C(=O)N[C@H](Cc1ccccn1)C(=O)O | 99.1 | 94.4 | 96.4 | 99 | 97.9 | 109 | 95.2 | 97.9 | 106 | 112 | 100 | 82.5 | 92.1 | 99.9 | 91.2 | 95 | 97 | 100 | 98.9 | 98.5 | 94.5 | 111 | 99 | 101 | 89.8 | 0 | 0 | 0 | 0 | 0 | > 10 | > 10 | > 10 | > 10 | > 10
C[N+]1([O-])[C@@H]2C[C@@H](OC(=O)[C@H](CO)c3ccccc3)C[C@H]1[C@@H]1O[C@@H]12 (some centres undefined) [scopolamine-N-oxide] | 93.9 | 96.5 | 93.9 | 98.5 | 104 | 99.7 | 95.4 | 100 | 102 | 94.5 | 88.4 | 97.6 | 85.9 | 96.6 | 102 | 93.1 | 83.9 | 104 | 97.4 | 107 | 105 | 93.1 | 107 | 107 | 108 | 0 | 0 | 0 | 0 | 0 | > 10 | > 10 | > 10 | > 10 | > 10
C[C@@]1(CO)[C@H](O)CC[C@@]2(C)[C@H]1CC[C@H]1C[C@@H]3C[C@@]12CC[C@]3(O)CO [aphidicolin] | 106 | 104 | 101 | 98.7 | 79.4 | 111 | 100 | 110 | 87.3 | 77.7 | 100 | 100 | 80 | 79.2 | 72 | 106 | 109 | 100 | 90.7 | 35.8 | 100 | 100 | 91.3 | 50.5 | 22.5 | 0.8 | 2.1 | 6.8 | 5.1 | 10.6 | > 10 | > 10 | – | 2.02 | 0.608
CC(=O)Nc1ccc(NC(=S)NC(=O)c2ccc(C(C)(C)C)cc2)cc1 [tenovin-1] | 95.6 | 96.8 | 96.2 | 103 | 98.3 | 108 | 95.1 | 95.8 | 90.9 | 77.2 | 94.7 | 91.4 | 106 | 100 | 88.7 | 99.9 | 98.8 | 105 | 67.8 | 61.7 | 113 | 89.6 | 104 | 56.8 | 42.4 | 0 | 1.3 | 0 | 5.6 | 8.2 | > 10 | > 10 | > 10 | – | 0.65
C[C@H](NC(=O)c1sccc1OCc1ccc(Cl)cc1)c1ccccc1 | 92.3 | 103 | 98.7 | 99.9 | 88.6 | 102 | 96 | 99.6 | 107 | 98.1 | 97.9 | 103 | 104 | 97 | 67.7 | 113 | 107 | 108 | 100 | 96.8 | 104 | 108 | 105 | 103 | 75.8 | 0 | 0 | 1.9 | 0 | 0.7 | > 10 | > 10 | – | > 10 | > 10
CCOC(=O)c1cncn1[C@H](C)c1ccccc1 [etomidate] | 91.8 | 99.2 | 94.4 | 97.2 | 102 | 94.2 | 111 | 97.1 | 102 | 100 | – | – | – | – | – | 102 | 96.4 | 104 | 89.1 | 106 | 95 | 86.3 | 97.3 | 100 | 91.7 | 0 | 0 | – | 0 | 0 | > 10 | > 10 | – | > 10 | > 10
CCc1cncnc1N1CCN(Cc2nc3cc(C(F)(F)F)ccc3[nH]2)CC1 | 96.6 | 101 | 98.5 | 97.7 | 79.9 | 80.8 | 101 | 84.2 | 89.9 | 88.2 | 93.2 | 109 | 99 | 98.5 | 61.8 | 99.5 | 104 | 101 | 101 | 89.9 | 97.6 | 103 | 103 | 92.4 | 34.8 | 0.9 | 1.1 | 2.1 | 0 | 4.8 | > 10 | > 10 | – | > 10 | 2.21
CCCc1cc(C(N)=S)ccn1 [protionamide] | 104 | 107 | 98.6 | 96 | 96.4 | 96.2 | 100 | 88.9 | 107 | 92.4 | 94.4 | 80.4 | 93.8 | 73.7 | 68.3 | 102 | 98.6 | 93.3 | 101 | 91.6 | 108 | 105 | 95.9 | 103 | 95.3 | 0 | 0 | 5.7 | 0 | 0 | > 10 | > 10 | – | > 10 | > 10
COc1c(N2CCNC(C)C2)c(F)cc2c(=O)c(C(=O)O)cn(C3CC3)c12 (centres undefined) [gatifloxacin] | 102 | 98.5 | 94.7 | 95.2 | 93 | 101 | 114 | 103 | 103 | 89.4 | 95.7 | 99.9 | 97.6 | 100 | 96.8 | – | – | – | – | – | 99.1 | 101 | 95.9 | 98.7 | 100 | 0 | 0 | 0 | – | 0 | > 10 | > 10 | > 10 | – | > 10
O=C(O)c1ccc2cc(-c3ccc(O)c(C45CC6CC(CC(C6)C4)C5)c3)ccc2c1 [CD-437] | 101 | 100 | 98.7 | 84.7 | 9.8 | 92.7 | 101 | 93.3 | 85.7 | 24.4 | 99.4 | 92.8 | 89.4 | 56.2 | 36.8 | 107 | 99.1 | 104 | 87.6 | 54.7 | 108 | 95.4 | 105 | 48.8 | 29.3 | 7.5 | 6.5 | 9.5 | 4.2 | 9.9 | 1.88 | 1.79 | 0.436 | – | 0.685

— the supplement of paper PMC13380429
